Broadly, the inhibition is the drop in the measured response relative to a control, in per cent.

Experiment [1] deals with ERBB2 (Homo sapiens, UniProt P04626). The experiment in a line: KINOMEscan: ERBB2. Type of experiment: binding. On the procedure:
(§1) The structure and synthesis of VIP152 were recently described by Lücking et al.. (Fig. 1A); however, the selectivity of the molecule in cellular systems has yet to be explored. […] We also performed this experiment at 1000 nM, where CDK9 was inhibited at 99%. […] We found a strong concordance between our data and those of Lücking when comparing the most inhibited kinases. Potential off-target effects of VIP152 were next tested in vitro at a concentration of 10 µM for off-target activity against a broad range of receptors, transporters, ion channels, and enzymes (n = 138) using the Eurofins Diversity Panel.
Kinomescan Kinase Profiling Assay
Kinomescan Assay was performed at DiscoverRX and described in Fabian, et al. 2005, Nat.
Biotechnol. In brief, kinases were produced and subsequently tagged with DNA for qPCR detection.
Streptavidin-coated magnetic beads were bound to biotinylated kinase ligands to serve as a solid support.
VIP152 was dissolved in DMSO and tested across a 10 serial threefold dilution set and compared to a test compound and a DMSO control. Kinases which were inhibited by VIP152 would not be bound to the solid-support resulting in decreased substrate for the qPCR reaction. Kinome map was produced via TreeSpot Analysis from DiscoverRX. […]
NanoBRETTM Target Engagement Assay Protocol […]
HEK293 cells were grown to 70-80% confluence appropriately prior to assay and subsequently trypsinized. Lipid:DNA complexes were prepared as follows. A 10µg/mL solution of DNA in Opti-MEM without serum consisting of the following ratios of carrier DNA and DNA encoding NanoLuc fusion were prepared.
9.0µg/mL of Transfection Carrier DNA, 1.0µg/mL of NanoLuc fusion vector DNA, and 1mL of Opti-MEM without phenol red. The solution was mixed thoroughly. Next, 30µL of FuGENE HD Transfection Reagent was added into each mL of DNA mixture to form the lipid:DNA complex and mixed by inversion 10 times followed by a 20 minute incubation at room temperature. […]

In experiment [2] the target is Adrenergic β1 (Homo sapiens, UniProt P08588). The experiment in a line: Eurofins Diversity Panel. Type of experiment: binding. The settings on record: hum, Conc. 10 μM.
Experiment [3] concerns the target Transporter, Dopamine (DAT) (Homo sapiens, UniProt Q01959). The experiment in a line: Eurofins Diversity Panel. Type of experiment: binding. Particulars: hum, Conc. 10 μM.
The target of experiment [4] is TAOK2 (Homo sapiens, UniProt Q9UL54). The experiment in a line: KINOMEscan: TAOK2. Type of experiment: binding. Particulars: 100 nM, read-out: Percent Control.
The target in experiment [5] is CLK1 (Homo sapiens, UniProt P49759). The experiment in a line: KINOMEscan: CLK1. Type of experiment: binding. The settings on record: 1000 nM, read-out: Percent Control.
Experiment [6] concerns the target CSF1R (Homo sapiens, UniProt P07333). The experiment in a line: KINOMEscan: CSF1R. Particulars: 1000 nM, read-out: Percent Control. Type of experiment: binding.
In experiment [7] the target is EPHA3 (Homo sapiens, UniProt P29320). The experiment in a line: KINOMEscan: EPHA3. The settings on record: 1000 nM, read-out: Percent Control. Type of experiment: binding.
The target of experiment [8] is INSRR (Homo sapiens, UniProt P14616). The experiment in a line: KINOMEscan: INSRR. Type of experiment: binding. Particulars: 1000 nM, read-out: Percent Control.
In experiment [9] the target is LYN (Homo sapiens, UniProt P07948). The experiment in a line: KINOMEscan: LYN. Type of experiment: binding. Particulars: 1000 nM, read-out: Percent Control.
Experiment [10] concerns the target MKNK2 (Homo sapiens, UniProt Q9HBH9). The experiment in a line: KINOMEscan: MKNK2. Type of experiment: binding. Particulars: 1000 nM, read-out: Percent Control.
Experiment [11] deals with EGFR(L747-E749del, A750P) (Homo sapiens, UniProt P00533, A750P/DEL747-749). The experiment in a line: biochemical. Particulars: per cent of control, KINOMEscan; read-out: Percent Control. Set-up: DiscoverX KINOMEscan kinase panel, per cent of control (100 = no effect), single concentrations. On the procedure: as §1, with “Panel. […] A Chemical structure of VIP152.” for “Panel.”

The target of experiment [12] is EGFR(L747-S752del, P753S) (Homo sapiens, UniProt P00533, DEL747-752/P753S). The experiment in a line: biochemical. Details: DiscoverX KINOMEscan kinase panel, per cent of control (100 = no effect), single concentrations. The settings on record: per cent of control, KINOMEscan; read-out: Percent Control. The procedure: as §1, with “Panel. […] A Chemical structure of VIP152.” for “Panel.”

Experiment [13] concerns the target EGFR(L747-T751del,Sins) (Homo sapiens, UniProt P00533, DEL747-750/T751S). The experiment in a line: biochemical. Set-up: DiscoverX KINOMEscan kinase panel, per cent of control (100 = no effect), single concentrations. The settings on record: per cent of control, KINOMEscan; read-out: Percent Control. The procedure:
as §1, with “Panel. […] A Chemical structure of VIP152.” for “Panel.”

The target of experiment [14] is FLT3(ITD) (Homo sapiens, UniProt P36888, ITD). The experiment in a line: biochemical. Set-up: DiscoverX KINOMEscan kinase panel, per cent of control (100 = no effect), single concentrations. The settings on record: per cent of control, KINOMEscan; read-out: Percent Control. The procedure: as §1, with “Panel. […] A Chemical structure of VIP152.” for “Panel.”
Experiment [15] deals with FLT3(ITD,D835V) (Homo sapiens, UniProt P36888, D835V/ITD). The experiment in a line: biochemical. Details: DiscoverX KINOMEscan kinase panel, per cent of control (100 = no effect), single concentrations. Particulars: per cent of control, KINOMEscan; read-out: Percent Control. On the procedure:
as §1, with “Panel. […] A Chemical structure of VIP152.” for “Panel.”

The target of experiment [16] is FLT3(ITD,F691L) (Homo sapiens, UniProt P36888, F691L/ITD). The experiment in a line: biochemical. Details: DiscoverX KINOMEscan kinase panel, per cent of control (100 = no effect), single concentrations. The settings on record: per cent of control, KINOMEscan; read-out: Percent Control. The procedure: as §1, with “Panel. […] A Chemical structure of VIP152.” for “Panel.”

ERBB2, sequence (P04626 23-1255): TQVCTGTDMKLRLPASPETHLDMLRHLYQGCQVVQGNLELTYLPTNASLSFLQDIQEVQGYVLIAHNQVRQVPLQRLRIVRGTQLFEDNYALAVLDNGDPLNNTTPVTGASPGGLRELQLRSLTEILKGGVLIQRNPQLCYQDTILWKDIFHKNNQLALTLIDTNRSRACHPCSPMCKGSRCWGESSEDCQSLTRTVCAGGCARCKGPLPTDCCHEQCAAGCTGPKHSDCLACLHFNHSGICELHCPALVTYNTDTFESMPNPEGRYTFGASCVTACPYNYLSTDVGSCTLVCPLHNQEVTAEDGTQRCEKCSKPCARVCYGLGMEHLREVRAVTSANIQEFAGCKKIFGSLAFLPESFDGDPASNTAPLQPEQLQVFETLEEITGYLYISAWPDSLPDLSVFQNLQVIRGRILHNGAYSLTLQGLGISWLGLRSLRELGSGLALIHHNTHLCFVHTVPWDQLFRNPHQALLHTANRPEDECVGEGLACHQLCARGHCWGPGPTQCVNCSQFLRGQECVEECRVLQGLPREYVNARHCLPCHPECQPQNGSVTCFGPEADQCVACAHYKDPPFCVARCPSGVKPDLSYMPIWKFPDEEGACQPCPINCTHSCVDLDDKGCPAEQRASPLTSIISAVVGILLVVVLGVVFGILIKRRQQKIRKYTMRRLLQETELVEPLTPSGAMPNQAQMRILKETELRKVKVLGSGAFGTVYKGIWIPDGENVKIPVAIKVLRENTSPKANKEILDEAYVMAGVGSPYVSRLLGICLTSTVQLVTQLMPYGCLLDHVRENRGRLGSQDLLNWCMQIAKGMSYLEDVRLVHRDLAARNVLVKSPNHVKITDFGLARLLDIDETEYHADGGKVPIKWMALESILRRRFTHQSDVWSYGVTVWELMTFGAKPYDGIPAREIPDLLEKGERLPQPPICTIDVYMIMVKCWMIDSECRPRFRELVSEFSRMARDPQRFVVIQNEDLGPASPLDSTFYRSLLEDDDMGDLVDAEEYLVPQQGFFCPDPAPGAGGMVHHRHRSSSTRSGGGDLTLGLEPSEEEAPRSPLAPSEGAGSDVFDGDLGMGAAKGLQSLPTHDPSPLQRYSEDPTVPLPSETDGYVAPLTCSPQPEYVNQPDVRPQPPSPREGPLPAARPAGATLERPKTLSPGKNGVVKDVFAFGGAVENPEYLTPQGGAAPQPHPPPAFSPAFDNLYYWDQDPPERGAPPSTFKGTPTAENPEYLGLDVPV
CSF1R, sequence (P07333 20-972): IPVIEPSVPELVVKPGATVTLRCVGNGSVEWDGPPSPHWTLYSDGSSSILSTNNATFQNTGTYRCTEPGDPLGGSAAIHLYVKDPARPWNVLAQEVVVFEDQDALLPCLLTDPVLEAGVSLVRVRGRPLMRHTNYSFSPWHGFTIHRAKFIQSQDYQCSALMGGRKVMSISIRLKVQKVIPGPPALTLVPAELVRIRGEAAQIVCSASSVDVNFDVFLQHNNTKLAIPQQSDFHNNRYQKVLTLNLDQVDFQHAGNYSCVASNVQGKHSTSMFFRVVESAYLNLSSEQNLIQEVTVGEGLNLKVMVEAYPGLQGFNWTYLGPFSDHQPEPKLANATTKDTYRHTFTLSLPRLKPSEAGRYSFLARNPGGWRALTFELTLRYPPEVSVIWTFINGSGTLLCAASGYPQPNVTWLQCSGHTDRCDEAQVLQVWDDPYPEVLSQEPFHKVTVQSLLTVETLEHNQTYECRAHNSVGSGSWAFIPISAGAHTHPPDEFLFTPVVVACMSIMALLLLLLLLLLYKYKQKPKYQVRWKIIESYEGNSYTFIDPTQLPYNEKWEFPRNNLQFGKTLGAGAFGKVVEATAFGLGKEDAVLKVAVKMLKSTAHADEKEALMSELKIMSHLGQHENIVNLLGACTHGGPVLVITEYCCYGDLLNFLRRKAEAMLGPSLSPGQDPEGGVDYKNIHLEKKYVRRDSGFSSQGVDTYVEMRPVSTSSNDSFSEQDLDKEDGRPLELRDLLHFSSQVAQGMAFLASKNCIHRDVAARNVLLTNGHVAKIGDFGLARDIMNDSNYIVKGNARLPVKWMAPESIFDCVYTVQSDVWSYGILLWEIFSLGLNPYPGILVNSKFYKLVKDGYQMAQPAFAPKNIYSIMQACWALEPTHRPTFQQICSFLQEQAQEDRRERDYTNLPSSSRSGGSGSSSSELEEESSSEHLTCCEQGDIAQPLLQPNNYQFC
MKNK2, sequence (Q9HBH9 whole entry): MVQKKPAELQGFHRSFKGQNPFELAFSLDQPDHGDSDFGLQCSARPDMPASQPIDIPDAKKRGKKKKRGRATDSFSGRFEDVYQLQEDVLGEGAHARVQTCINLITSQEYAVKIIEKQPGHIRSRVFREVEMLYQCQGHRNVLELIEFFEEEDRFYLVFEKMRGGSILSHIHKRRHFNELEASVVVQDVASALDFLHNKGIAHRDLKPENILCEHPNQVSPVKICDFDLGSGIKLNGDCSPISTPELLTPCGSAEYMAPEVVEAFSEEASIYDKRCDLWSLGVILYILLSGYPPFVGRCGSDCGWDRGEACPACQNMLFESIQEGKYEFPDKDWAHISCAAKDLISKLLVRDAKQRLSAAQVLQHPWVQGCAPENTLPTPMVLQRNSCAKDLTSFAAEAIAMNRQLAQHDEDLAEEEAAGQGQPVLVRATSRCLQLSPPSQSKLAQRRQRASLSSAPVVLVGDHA
EGFR(L747-T751del,Sins), sequence (P00533 with tags, fused parts or gaps DEL747-750/T751S): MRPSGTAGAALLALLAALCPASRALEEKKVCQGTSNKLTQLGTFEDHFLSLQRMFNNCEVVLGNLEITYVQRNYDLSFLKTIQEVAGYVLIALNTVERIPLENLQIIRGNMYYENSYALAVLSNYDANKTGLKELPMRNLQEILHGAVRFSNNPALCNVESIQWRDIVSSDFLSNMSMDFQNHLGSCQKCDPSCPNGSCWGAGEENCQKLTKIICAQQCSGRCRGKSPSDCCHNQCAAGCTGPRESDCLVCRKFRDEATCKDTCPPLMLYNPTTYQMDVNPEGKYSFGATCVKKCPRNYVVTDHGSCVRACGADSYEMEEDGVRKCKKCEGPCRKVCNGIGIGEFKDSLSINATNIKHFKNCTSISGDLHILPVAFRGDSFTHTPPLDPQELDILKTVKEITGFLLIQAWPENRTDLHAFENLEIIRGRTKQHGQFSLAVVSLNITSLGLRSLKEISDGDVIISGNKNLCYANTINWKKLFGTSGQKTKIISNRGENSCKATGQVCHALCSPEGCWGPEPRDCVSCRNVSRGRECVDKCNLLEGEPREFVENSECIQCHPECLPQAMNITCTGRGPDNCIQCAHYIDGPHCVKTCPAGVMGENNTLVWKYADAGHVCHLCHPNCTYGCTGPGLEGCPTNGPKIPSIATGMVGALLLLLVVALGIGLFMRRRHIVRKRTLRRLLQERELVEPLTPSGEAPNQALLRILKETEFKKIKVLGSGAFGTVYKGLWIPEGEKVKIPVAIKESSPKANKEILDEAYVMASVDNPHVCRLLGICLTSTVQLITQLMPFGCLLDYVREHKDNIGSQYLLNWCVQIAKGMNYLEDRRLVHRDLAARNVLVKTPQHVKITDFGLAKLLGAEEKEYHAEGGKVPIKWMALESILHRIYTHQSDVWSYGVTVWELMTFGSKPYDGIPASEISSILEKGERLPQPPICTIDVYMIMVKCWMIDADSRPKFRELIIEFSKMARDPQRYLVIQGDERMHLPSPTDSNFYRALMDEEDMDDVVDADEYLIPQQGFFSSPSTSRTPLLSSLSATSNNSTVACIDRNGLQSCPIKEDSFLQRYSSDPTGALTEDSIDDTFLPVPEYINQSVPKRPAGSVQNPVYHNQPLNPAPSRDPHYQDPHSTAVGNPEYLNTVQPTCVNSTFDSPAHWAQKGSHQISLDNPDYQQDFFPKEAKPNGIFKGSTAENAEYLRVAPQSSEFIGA
TAOK2, sequence (Q9UL54 whole entry): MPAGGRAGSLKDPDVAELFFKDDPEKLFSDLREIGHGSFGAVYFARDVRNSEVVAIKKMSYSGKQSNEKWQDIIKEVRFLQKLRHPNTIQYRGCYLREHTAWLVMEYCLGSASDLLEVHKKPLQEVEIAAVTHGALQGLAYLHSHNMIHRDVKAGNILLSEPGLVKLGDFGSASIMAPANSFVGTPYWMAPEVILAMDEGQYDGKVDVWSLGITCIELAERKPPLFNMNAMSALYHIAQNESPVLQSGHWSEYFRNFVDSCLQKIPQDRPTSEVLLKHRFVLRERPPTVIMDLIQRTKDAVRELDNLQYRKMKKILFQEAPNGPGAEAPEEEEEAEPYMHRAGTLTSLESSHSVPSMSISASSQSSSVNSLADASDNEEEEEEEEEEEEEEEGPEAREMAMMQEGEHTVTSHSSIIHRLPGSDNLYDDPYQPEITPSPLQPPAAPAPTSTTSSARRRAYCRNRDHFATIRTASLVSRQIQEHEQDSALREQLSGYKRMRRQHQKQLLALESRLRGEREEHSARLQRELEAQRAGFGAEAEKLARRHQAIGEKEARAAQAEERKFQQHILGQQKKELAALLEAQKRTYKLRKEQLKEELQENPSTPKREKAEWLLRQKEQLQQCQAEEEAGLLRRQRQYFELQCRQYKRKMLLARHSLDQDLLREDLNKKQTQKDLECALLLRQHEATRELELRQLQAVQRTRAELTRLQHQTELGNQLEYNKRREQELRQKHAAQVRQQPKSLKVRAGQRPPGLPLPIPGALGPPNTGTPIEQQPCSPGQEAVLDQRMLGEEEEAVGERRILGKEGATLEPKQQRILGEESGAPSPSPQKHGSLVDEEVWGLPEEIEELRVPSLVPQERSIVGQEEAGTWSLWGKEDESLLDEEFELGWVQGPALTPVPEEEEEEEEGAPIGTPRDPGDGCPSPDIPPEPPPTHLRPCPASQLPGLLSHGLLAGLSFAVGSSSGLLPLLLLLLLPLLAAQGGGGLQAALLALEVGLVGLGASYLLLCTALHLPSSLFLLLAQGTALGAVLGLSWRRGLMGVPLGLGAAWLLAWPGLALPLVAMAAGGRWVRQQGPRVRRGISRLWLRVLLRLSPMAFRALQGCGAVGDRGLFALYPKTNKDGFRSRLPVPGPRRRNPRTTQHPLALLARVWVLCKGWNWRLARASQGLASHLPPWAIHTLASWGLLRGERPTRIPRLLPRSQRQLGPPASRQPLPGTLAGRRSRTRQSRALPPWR

`COc1cc(F)ccc1-c1cc(Nc2cc(CS(C)(=N)=O)ccn2)ncc1F` (stereo not drawn) [VIP152]: in experiment [1] (100 nM, read-out: inhibition of ERBB2 relative to control), the inhibition at 0.1 µM was determined as 65%. Moreover, the remaining binding at 0.1 µM in experiment [1] (ERBB2, 100 nM, read-out: Percent Control) was 35%; in experiment [4], 92%; in experiment [11], 100%; in experiment [12], 93%; in [13] it was 100%; in [14], 100%. Besides, the remaining binding at 0.1 µM in experiment [15] amounted to 100%; in [16], 99%. Besides, the remaining binding at 1 µM was 100% in [1] (ERBB2, 1000 nM, read-out: Percent Control); 71% in experiment [5]; 70% in [6]; 89% in [7]; 85% in [8]; 90% in [9]. Besides, the remaining binding at 1 µM in [10] is 96%. The inhibition at 10 µM in [2] is -7%; in experiment [3] it was 31%.

The record behind these values is PMC9898036, “VIP152 is a selective CDK9 inhibitor with pre-clinical in vitro and in vivo efficacy in chronic lymphocytic leukemia” (Leukemia, 2022).
